Experimental data as given in patent publication US5854211A, “Compounds with growth hormone releasing properties” (Novo Nordisk A/S, priority 1993, dated 1998).
Residues, ends and D or L forms follow the SMILES beside them.

Test system: rat pituitary cells
Test: In-vitro assay of GH secretion from cultured rat pituitary cells (rGH measured by SPA)
Format: cell-based
Details: mixed rat anterior pituitary cell culture, 15 min stimulation at 37° C.
Procedure: An in-vitro assay using rat pituitary cells was established to study the effect of different GH secretagogues. The mixed pituitary cell culture was isolated from the anterior pituitary of male rats and cultured for 3 days. After washing the cells were stimulated for 15 min and the amount of GH secreted measured in the culture supernatant. The isolation of rat pituitary cells was a modification of Sartor, O. et al., Endocrinology 116, 1985, pp. 952-957. Pituitaries were discharged from 250 g male Sprague-Dawley rats after decapitation. The neurointermediate lobes were removed and the remainder was placed in Gey's medium supplemented with 0.25% glucose, 2× non essential amino acid and 1% BSA (isolation buffer). The glands were cut into small pieces and transferred to a flask containing 3 ml isolation buffer +11.5 mg trypsin and 1000 μg DNase and incubated for 35 min at 37° C., 95% O2 and 70 rotations per min. The fragments were washed 3 times by sedimentation in isolation buffer and aspirated into single cells by using a pasteur pipet. After dispersion the cells were filtered though a nylon filter (160 μm) to remove undigested tissue. The cells were washed 3 times with isolation buffer supplemented with trypsin inhibitor (0.75 mg/ml) and resuspended in culture medium (DMEM supplemented with 25 mM HEPES, 4mM Glutamine, 0.75% sodium bicarbonate, 2.5% FCS, 3% horse serum, 10% rat serum, 1 nM T3 and 40 μg/L dexamethasone) to a density of 2×10^5 cells/ml. The cells were seeded into microtiter plates, 200 μl/well and cultured for 3 days at 37° C. and 8% CO2. Following the culture period the cells were washed twice with stimulation buffer (HBSS supplemented with 1% BSA, 0.25% D-glucose and 25 mM HEPES) and preincubated for 1 hour. […] The buffer was collected and analyzed for rat growth hormone (rGH) content in a scintillation proximity assay (SPA) as follows (SPA, essentially as described in U.S. Pat. […] USA 82, 1985, pp. 8672-8676). The rGH assay was performed in OptiPlates (96-well plates) suitable for direct counting in a […] TopCount (β-scintillation counter). Assay protocol: 40 μl buffer 10 μl sample (incubated stimulation buffer) 50 μl ^125 I-rGH 50 μl rabbit anti-rGH 50 μl SPA reagent (anti-rabbit antibody bound to fluomicrospheres) The plates are sealed and placed on a plate shaker for 30 minutes followed by 10 hours of incubation, settling at 10°-15° C. and counting. In the SPA, rGH bound to an anti-GH rabbit antibody (primary antibody) is reacted with a second antibody bound to fluomicrospheres (SPA Type II RIA available from Amersham). Any radiolabelled rGH which is bound to the primary antibody will be immobilized on the fluomicrospheres which will then produce light. Measurement in a β-scintillation counter makes it possible to calculate the amount of radiolabelled rGH. The amount of radiolabelled rGH bound to the fluomicrospheres decreases with an increasing content of rGH in the sample.

| Molecule | EC50 [nM] | Emax (% of GHRP-6) |
| --- | --- | --- |
| C[C@H](NC(=O)[C@@H](Cc1c[nH]c2ccccc12)NC(=O)[C@@H](N)Cc1c[nH]cn1)C(=O)N[C@@H](Cc1c[nH]c2ccccc12)C(=O)N[C@H](Cc1ccccc1)C(=O)N[C@@H](CCCCN)C(N)=O [H--His-D-Trp--Ala--Trp-D-Phe--Lys--NH2] (HELM PEPTIDE1{H.[dW].A.W.[dF].K.[am]}$$$$V2.0) | 2 | 100 % of GHRP-6 |
| C[C@H](NC(=O)[C@@H](Cc1ccc2ccccc2c1)NC(=O)[C@@H](C)N)C(=O)N[C@@H](Cc1c[nH]c2ccccc12)C(=O)N[C@H](Cc1ccccc1)C(=O)N[C@@H](CCCCN)C(N)=O [H-D-Ala-D-2Nal--Ala--Trp-D-Phe--Lys--NH2] (HELM PEPTIDE1{[dA].[O=C([C@@H](Cc1ccc2ccccc2c1)N[*:1])[*:2]].A.W.[dF].K.[am]}$$$$V2.0) | 1.8 | 85 % of GHRP-6 |
| H-His-D-Trp-Ala-Trp-D-Phe.psi.(CH2 NH)Lys-NH2 [Example 2] | 0.5 | 100 % of GHRP-6 |
| (2S)-((3-(4-Imidazolyl)propionyl)-D-Phe--Ala--Trp-D-Phe.psi.(CH2 NH)-6-aminohexanol | 5 | 80 % of GHRP-6 |
| C[C@@H](N)C(=O)N[C@H](Cc1ccc2ccccc2c1)C(=O)NCC(=O)N[C@@H](Cc1c[nH]c2ccccc12)C(=O)N[C@H](Cc1ccccc1)C(=O)N[C@@H](CCCCN)C(N)=O [H-DAla-D2Nal--Gly--Trp-DPhe--Lys--NH2] (HELM PEPTIDE1{[dA].[O=C([C@@H](Cc1ccc2ccccc2c1)N[*:1])[*:2]].G.W.[dF].K.[am]}$$$$V2.0) | 0.8 | 75 % of GHRP-6 |
